# Where “and” joins values, the source holds several entries; their conditions need not be identical. Equal values may be shown once.
# Assays:
# [1] = system: Xanthomonas oryzae pv. oryzae (Xoo); test: microbe, parasite or virus in culture; format: cell-based; conditions: for inhibition at 50 µg/mL / inhibition at 100 µg/mL / EC50: Xanthomonas oryzae; for inhibition at 50 µg/mL / inhibition at 100 µg/mL: read-out: Antibacterial activity (inhibition rate) against Xoo; for EC50: read-out: EC50 against Xoo; for Antibacterial activity (inhibition rate) against Xoo / EC50 against Xoo: in vitro; for Antibacterial activity (inhibition rate) against Xoo: strain PXO99A, average of three replicates; for EC50 against Xoo: five concentrations 100-6.25 μg/mL
# [2] = system: Xanthomonas axonopodis pv. citri (Xac); test: microbe, parasite or virus in culture; format: cell-based; conditions: for inhibition at 50 µg/mL / inhibition at 100 µg/mL / EC50: Xanthomonas axonopodis; for inhibition at 50 µg/mL / inhibition at 100 µg/mL: read-out: Antibacterial activity (inhibition rate) against Xac; for EC50: read-out: EC50 against Xac
Compound,inhibition at 50 µg/mL [1] [%],inhibition at 100 µg/mL [1] [%],EC50 [1] [mg/L],inhibition at 50 µg/mL [2] [%],inhibition at 100 µg/mL [2] [%],EC50 [2] [mg/L],Antibacterial activity (inhibition rate) against Xoo ([1]; 50 μg/mL) [%],Antibacterial activity (inhibition rate) against Xoo ([1]; 100 μg/mL) [%],EC50 against Xoo [1] [mg/L],Antibacterial activity (inhibition rate) against Xac [2],EC50 against Xac [2] [mg/L]
"COP(=O)(OC)Oc1ccccc1/C=C/C(=O)/C=C/c1ccc(Cl)cc1 [3a, 2-((1E,4E)-5-(4-chlorophenyl)-3-oxopenta-1,4-dien-1-yl)phenyl dimethyl phosphate]",83.9 ± 2.1,85 ± 2.1,35.8,50.6 ± 4.6,59.7 ± 1.8,45,–,–,–,–,–
CCOP(=O)(OCC)Oc1ccccc1/C=C/C(=O)/C=C/c1ccc(Cl)cc1 [3b],35 ± 4.4,37 ± 2.9,–,53 ± 3.6,53.1 ± 3.2,34.1,–,–,–,–,–
COc1ccc(/C=C/C(=O)/C=C/c2ccccc2OP(=O)(OC)OC)cc1 [3c],23.4 ± 0.9,25.5 ± 0.9,–,53.5 ± 2.5,57.5 ± 2.1,–,–,–,–,–,–
CCOP(=O)(OCC)Oc1ccccc1/C=C/C(=O)/C=C/c1ccc(OC)cc1 [3d],32.6 ± 2.2,35.7 ± 1.1,–,34.9 ± 1.5,46.4 ± 1.1,–,–,–,–,–,–
COP(=O)(OC)Oc1ccccc1/C=C/C(=O)/C=C/c1ccccc1Cl [3e],65.3 ± 1.9,69.4 ± 0.6,46,67.9 ± 4.3,77.6 ± 2.8,22.9,–,–,–,–,–
CCOP(=O)(OCC)Oc1ccccc1/C=C/C(=O)/C=C/c1ccccc1Cl [3f],35.7 ± 3.4,36.4 ± 3.1,–,52.9 ± 2.1,53.1 ± 2.1,–,–,–,–,–,–
CCOP(=O)(OCC)Oc1ccccc1/C=C/C(=O)/C=C/c1cccc([N+](=O)[O-])c1 [3h],78.1 ± 1.4,86.5 ± 1.9,19.1,48.5 ± 4.2,54.8 ± 3.8,–,–,–,–,–,–
COP(=O)(OC)Oc1ccccc1/C=C/C(=O)/C=C/c1ccc([N+](=O)[O-])cc1 [3i],43.9,56.6 ± 1.3,–,50.8 ± 4.2,50.9 ± 4.5,–,–,–,–,–,–
CCOP(=O)(OCC)Oc1ccccc1/C=C/C(=O)/C=C/c1ccc([N+](=O)[O-])cc1 [3j],81.4 ± 0.9,85.5 ± 0.8,17.7,52.9 ± 5.4,61.9 ± 1.1,–,–,–,–,–,–
CCOP(=O)(OCC)Oc1ccccc1/C=C/C(=O)/C=C/c1ccc(C)cc1 [3k],39.4 ± 0.4,41.5 ± 0.6,–,47.7 ± 3.1,52.6 ± 2.9,–,–,–,–,–,–
COP(=O)(OC)Oc1ccccc1/C=C/C(=O)/C=C/c1ccccc1 [3l],16.7 ± 5.3,35.9 ± 2.9,–,29.2 ± 4.3,49.4 ± 8,–,–,–,–,–,–
CCOP(=O)(OCC)Oc1ccccc1/C=C/C(=O)/C=C/c1ccccc1 [3m],2.5 ± 5.7,28.7 ± 9.1,–,18 ± 2.9,27.4 ± 0.6,–,–,–,–,–,–
COP(=O)(OC)Oc1ccccc1/C=C/C(=O)/C=C/c1ccc(Br)cc1 [3n],18.8 ± 1.1,23.8 ± 5.3,–,2.5 ± 0.9,16.1 ± 3.8,–,–,–,–,–,–
CCOP(=O)(OCC)Oc1ccccc1/C=C/C(=O)/C=C/c1ccc(Br)cc1 [3o],19.9 ± 3.7,31.4 ± 2.2,–,23 ± 2.7,28.4 ± 3.4,–,–,–,–,–,–
COP(=O)(OC)Oc1ccccc1/C=C/C(=O)/C=C/c1cccc(C(F)(F)F)c1 [3p],21.8 ± 1.5,25 ± 3.1,–,11.5 ± 1.8,20.2 ± 0.8,–,–,–,–,–,–
CCOP(=O)(OCC)Oc1ccccc1/C=C/C(=O)/C=C/c1cccc(C(F)(F)F)c1 [3q],20.3 ± 3.1,31.5 ± 2.1,–,5.4 ± 2.6,25.4 ± 0.5,–,–,–,–,–,–
COP(=O)(OC)Oc1ccccc1/C=C/C(=O)/C=C/c1cccc(C)c1 [3r],21 ± 2.2,42.4 ± 1.4,–,10.3 ± 2.5,20.5 ± 1.2,–,–,–,–,–,–
CCOP(=O)(OCC)Oc1ccccc1/C=C/C(=O)/C=C/c1cccc(C)c1 [3s],12.5 ± 6,29.5 ± 4.8,–,8.5 ± 3.8,27.4 ± 1.7,–,–,–,–,–,–
"S=c1[nH]nc(NCNc2n[nH]c(=S)s2)s1 [Bismerthiazol, bismerthiazol, reference compound]",–,–,–,–,–,–,45.2 ± 2.0,64.9 ± 3.9,58.8,70.3±2.8% and 54.9 ± 5.5%,44.5
"Nc1nnc([S-])s1.Nc1nnc([S-])s1.[Cu+2] [Thiodiazole-copper, thiodiazole-copper, reference compound]",–,–,–,–,–,–,37.2 ± 3.2,50.2 ± 0.9,78.7,–,87.9

# Source: PMC6429309 (Molecules, 2019)
